Results from patent EP0855398B1, “SESQUITERPENE DERIVATIVES HAVING ANTIVIRAL ACTIVITY” (SHIONOGI & CO., LTD., priority 1995, dated 1997).
Values after ≈ are worked out from the molar mass of the structure shown.

What was measured:
[1] = test system: Influenza virus A/WSN/33 (H1N1); test: microbe, parasite or virus in culture; format: cell-based; details: 72 h; viral strain: Influenza virus A/WSN/33 (H1N1); Cell: MDBK; […]; 3 days; read-out: IC50
in vitro = details: bovine; for CC50 at 72 h: mdbk cells

| SMILES | IC50 [1] [µg/mL] | CC50 at 72 h (in vitro) [µg/mL] | CC50 (in vitro) [µg/mL] |
| --- | --- | --- | --- |
| C[C@H]1CC[C@H]2C(C)(C)[C@@H](O)CC[C@]23Oc2c(c(O)cc4c2CNC4=O)C[C@]13C [(2)] | 0.001 (≈ 0.00259 µM) | 25 (≈ 64.9 µM) |  |
| C[C@H]1CC[C@H]2C(C)(C)[C@@H](O)CC[C@]23Oc2c(c(O)cc4c2C(=O)NC4=O)C[C@]13C [(32a), (6aR, 7S, 9aS, 115, 13aS)-2,3,6,6a, 7,8,9,9a, 10, 11, 12, 13-dodecahydro-5, 11-dihydroxy-6a, 7, 30, 10-tetramethyl-13-dioxo-1H-benzo[8,8a][1]benzopyrano[2,3-e]isoindole] | 0.001 to 0.002 (≈ 0.0025 to 0.00501 µM) | 20 (≈ 50.1 µM) |  |
| C[C@H]1CC[C@H]2C(C)(C)[C@H](OS(C)(=O)=O)CC[C@]23Oc2c(c(O)cc4c2CNC4=O)C[C@]13C [Compound (13b), (6a R, 7 S, 9a S, 11 R, 13a S)-2,3,6,6a, 7,8,9,9a, 10, 11, 12, 13-dodecahydro-5-hydroxy-6a, 7, 10, 10-tetramethyl-11-methanesulfonyloxy-3-oxo-1H-benzo[8,8a][1]benzopyrano[2,3-e]isoindole] | 0.02 (≈ 0.0431 µM) |  | 5 (≈ 10.8 µM) |
| C[C@H]1CC[C@H]2C(C)(C)[C@H](OS(=O)(=O)c3ccccc3)CC[C@]23Oc2c(c(O)cc4c2CNC4=O)C[C@]13C [Compound (13d), (6a R, 7 S, 9a S, 11 R, 13a S)-2,3,6,6a, 7,8,9,9a, 10, 11, 12, 13-dodecahydro-5-hydroxy-6a, 7, 10, 10-tetramethyl-3-oxo-11-phenylsulfonyloxy-1H-benzo[8,8a][1]benzopyrano[2,3-e]isoindole] | 0.02 to 0.06 (≈ 0.038 to 0.114 µM) |  | 10 (≈ 19 µM) |
| C[C@H]1CC[C@H]2C(C)(C)[C@@H](O)CC[C@]23Oc2c(c(O)cc4c2CN(C)C4=O)C[C@]13C [Compound (28a), (6aR, 7S, 9aS, 11S, 13aS)-2,3,6,6a, 7,8,9,9a, 10, 11, 12, 13-dodecahydro-5, 11-dihydroxy-2,6a, 7, 10, 10-pentamethyl-3-oxo-1H-benzo[8,8a][1]benzopyrano[2,3-e]isoindole] | 0.02 (≈ 0.0501 µM) |  | 10 to 20 (≈ 25 to 50.1 µM) |
| CCCCN1Cc2c(cc(O)c3c2O[C@@]24CC[C@H](O)C(C)(C)[C@@H]2CC[C@H](C)[C@@]4(C)C3)C1=O [Compound (28b), (6aR, 7S, 9aS, 11S, 13aS)-2-butyl-2,3,6,6a, 7,8,9,9a, 10, 11, 12, 13-dodecahydro-5, 11-dihydroxy-6a, 7, 10, 10-tetramethyl-3-oxo-1H-benzo[8,8a][1]benzopyrano[2,3-e]isoindole] | 0.02 (≈ 0.0453 µM) |  | 2.5 (≈ 5.66 µM) |
| C[C@H]1CC[C@H]2C(C)(C)[C@@H](O)CC[C@]23Oc2c(c(O)cc4c2CN(S(C)(=O)=O)C4=O)C[C@]13C [Compound (28e), (6aR, 7S, 9aS, 11S, 13aS)-2,3,6,6a, 7,8,9,9a, 10, 11, 12, 13-dodecahydro-5, 11-dihydroxy-6a, 7, 10, 10-tetramethyl-2-methanesulfonyl-3-oxo-1H-benzo[8,8a][1]benzopyrano[2,3-e]isoindole] | 0.03 (≈ 0.0647 µM) |  | > 10 |
| CC(=O)N1Cc2c(cc(O)c3c2O[C@@]24CC[C@H](O)C(C)(C)[C@@H]2CC[C@H](C)[C@@]4(C)C3)C1=O [Compound (28f), (6aR, 7S, 9aS, 115, 13aS)-2-acetyl-2,3,6,6a, 7,8,9,9a, 10, 11, 12, 13-dodecahydro-5,11-dihydroxy-6a, 7, 10, 10-tetramethyl-3-oxo-1H-benzo[8,8a][1]benzopyrano[2,3-e]isoindole] | 0.02 (≈ 0.0468 µM) | > 10 |  |
| C[C@H]1CC[C@H]2C(C)(C)[C@@H](O)CC[C@]23Oc2c(c(O)cc4c2C(O)NC4=O)C[C@]13C (stereo partly drawn) [Compound (30a), (6aR, 7S, 9aS, 11S, 13aS)-2,3,6,6a, 7,8,9,9a, 10, 11, 12, 13-dodecahydro-1,5, 11-trihydroxy-6a, 7, 10, 10-tetramethyl-3-oxo-1H-benzo[8,8a][1]benzopyrano[2,3-e]isoindole] | 0.002 (≈ 0.00498 µM) |  | > 40 |
| COC1NC(=O)c2cc(O)c3c(c21)O[C@@]12CC[C@H](O)C(C)(C)[C@@H]1CC[C@H](C)[C@@]2(C)C3 (stereo partly drawn) [Compound (30b), (6aR, 7S, 9aS, 11S, 13aS)-2,3,6,6a, 7,8,9,9a, 10, 11, 12, 13-dodecahydro-5, 11-dihydroxy-1-methoxy-6a, 7, 10, 10-tetramethyl-3-oxo-1H-benzo[8,8a][1]benzopyrano[2,3-e]isoindole] | 0.04 (≈ 0.0963 µM) |  | 20 (≈ 48.1 µM) |
| CCCOC1NC(=O)c2cc(O)c3c(c21)O[C@@]12CC[C@H](O)C(C)(C)[C@@H]1CC[C@H](C)[C@@]2(C)C3 (stereo partly drawn) [Compound (30c), (6aR, 7S, 9aS, 11S, 13aS)-2,3,6,6a, 7,8,9,9a, 10, 11, 12, 13-dodecahydro-5, 11-dihydroxy-1-propoxy-6a, 7, 10, 10-tetramethyl-3-oxo-1H-benzo[8,8a][1]benzopyrano[2,3-e]isoindole] | 0.04 (≈ 0.0902 µM) |  | 20 (≈ 45.1 µM) |
| C[C@H]1CC[C@H]2C(C)(C)[C@@H](O)CC[C@]23Oc2c(c(O)cc4c2C(=O)N(C)C4=O)C[C@]13C [Compound (32b), (6aR, 7S, 9aS, 11S, 13aS)-2,3,6,6a, 7,8,9,9a, 10, 11, 12, 13-dodecahydro-5, 11-dihydroxy-2,6a, 7, 10, 10-pentamethyl-13-dioxo-1H-benzo[8,8a][1]benzopyrano[2,3-e]isoindole] | 0.04 (≈ 0.0967 µM) | 10 (≈ 24.2 µM) |  |
| CCCCN1C(=O)c2cc(O)c3c(c2C1=O)O[C@@]12CC[C@H](O)C(C)(C)[C@@H]1CC[C@H](C)[C@@]2(C)C3 [Compound (32c), (6aR, 7S, 9aS, 11S, 13aS)-2-butyl-2,3,6,6a, 7,8,9,9a, 10, 11, 12, 13-dodecahydro-5, 11-dihydroxy-6a, 7, 10, 10-tetramethyl-13-dioxo-1H-benzo[8,8a][1]benzopyrano[2,3-e]isoindole] | 0.04 to 0.08 (≈ 0.0878 to 0.176 µM) | 5 (≈ 11 µM) |  |
| C[C@H]1CC[C@H]2C(C)(C)[C@@H](O)CC[C@]23Oc2c(c(O)cc4c2CNC4)C[C@]13C [Compound (34a), (6aR, 7S, 9aS, 11S, 13aS)-2,3,6,6a, 7,8,9,9a, 10, 11, 12, 13-dodecahydro-5, 11-dihydroxy-6a, 7,10,10-tetramethyl-1H-benzo[8,8a][1]benzopyrano[2,3-e]isoindole] | 0.04 (≈ 0.108 µM) |  | > 10 |
| C[C@H]1CC[C@H]2C(C)(C)[C@@H](OC(=O)c3cccnc3)CC[C@]23Oc2c(c(O)cc4c2CNC4=O)C[C@]13C [Compound (35a), (6aR, 7S, 9aS, 11S, 13aS)-2,3,6,6a, 7,8,9,9a, 10, 11, 12, 13-dodecahydro-5-hydroxy-6a, 7, 10, 10-tetramethyl-3-oxo-11-[(3-pyridyl)carbonyloxy]-1H-benzo[8,8a][1]benzopyrano[2,3-e]isoindole] | 0.001 (≈ 0.00204 µM) |  | 10 (≈ 20.4 µM) |
| C[C@H]1CC[C@H]2C(C)(C)[C@@H](OC(=O)c3cnccn3)CC[C@]23Oc2c(c(O)cc4c2CNC4=O)C[C@]13C [Compound (35b), (6aR, 7S, 9aS, 11S, 13aS)-2,3,6,6a, 7,8,9,9a, 10, 11, 12, 13-dodecahydro-5-hydroxy-6a, 7, 10, 10-tetramethyl-3-oxo-11-[(2-pyrazyl)carbonyloxy]-1H-benzo[8,8a][1]benzopyrano[2,3-e]isoindole] | 0.002 to 0.004 (≈ 0.00407 to 0.00814 µM) | 10 (≈ 20.3 µM) |  |
| C[C@H]1CC[C@H]2C(C)(C)C=CC[C@]23Oc2c(c(O)cc4c2CNC4=O)C[C@]13C [Compound (41a), (6a R, 7 S, 9a S, 13a S)-2,3,6,6a, 7,8,9,9a, 10, 13-decahydro-5-hydroxy-6a, 7, 10, 10-tetramethyl-3-oxo-1H-benzo[8,8a][1]benzopyrano[2,3-e]isoindole] | 0.002 (≈ 0.00544 µM) |  | 5 (≈ 13.6 µM) |
| C[C@H]1CC[C@H]2C(C)(C)CCC[C@]23Oc2c(c(O)cc4c2CNC4=O)C[C@]13C [Compound (42), (6a R, 7 S, 9a S, 13a S)-2,3,6,6a, 7,8,9,9a, 10, 11, 12, 13-dodecahydro-5-hydroxy-6a, 7, 10, 10-tetramethyl-3-oxo-1H-benzo [8,8a] [1] benzopyrano[2,3-e]isoindole] | 0.002 (≈ 0.00541 µM) |  | 5 (≈ 13.5 µM) |
| C[C@H]1CC[C@H]2C(C)(C)[C@H]3O[C@H]3C[C@]23Oc2c(c(O)cc4c2CNC4=O)C[C@]13C [Compound (43a), (6a R, 7 S, 9a S, 11 R, 12 S, 13a S)-11,12-epoxy-2,3,6,6a, 7,8,9,9a, 10, 11, 12, 13-dodecahydro-5-hydroxy-6a, 7, 10, 10-tetramethyl-3-oxo-1H-benzo[8,8a][1]benzopyrano[2,3-e]isoindole] | 0.001 to 0.002 (≈ 0.00261 to 0.00522 µM) |  | 40 (≈ 104 µM) |
| C[C@H]1CC[C@H]2C(C)(C)[C@@H](N)CC[C@]23Oc2c(c(O)cc4c2CNC4=O)C[C@]13C [Compound (47a), (6aR, 7S, 9aS, 11S, 13aS)-11-amino-2,3,6,6a, 7,8,9,9a, 10, 11, 12, 13-dodecahydro-5-hydroxy-6a, 7, 10, 10-tetramethyl-3-oxo-1H-benzo[8,8a][1]benzopyrano[2,3-e]isoindole] | 0.02 (≈ 0.052 µM) |  | > 10 |
| CC(=O)N[C@H]1CC[C@@]23Oc4c(c(O)cc5c4CNC5=O)C[C@]2(C)[C@@H](C)CC[C@H]3C1(C)C [Compound (47b), (6aR, 7S, 9aS, 11S, 13aS)-11-acetylamino-2,3,6,6a, 7,8,9,9a, 10, 11, 12, 13-dodecahydro-5-hydroxy-6a, 7, 10, 10-tetramethyl-3-oxo-1H-benzo[8,8a][1]benzopyrano[2,3-e]isoindole] | 0.02 (≈ 0.0469 µM) |  | > 10 |
| C[C@H]1CC[C@H]2C(C)(C)[C@@H](NS(C)(=O)=O)CC[C@]23Oc2c(c(O)cc4c2CNC4=O)C[C@]13C [Compound (47c), (6aR, 7S, 9aS, 11S, 13aS)-2,3,6,6a, 7,8,9,9a, 10, 11, 12, 13-dodecahydro-5-hydroxy-6a, 7, 10, 10-tetramethyl-11-methanesulfonylamino-3-oxo-1H-benzo[8,8a][1]benzopyrano[2,3-e]isoindole] | 0.01 (≈ 0.0216 µM) |  | > 10 |
| C[C@H]1CC[C@H]2C(C)(C)[C@@H](NS(=O)(=O)c3ccccc3)CC[C@]23Oc2c(c(O)cc4c2CNC4=O)C[C@]13C [Compound (47d), (6aR, 7S, 9aS, 11S, 13aS)-2,3,6,6a, 7,8,9,9a, 10, 11, 12, 13-dodecahydro-5-hydroxy-6a, 7, 10, 10-tetramethyl-11-phenylsulfonylamino-3-oxo-1H-benzo[8,8a][1]benzopyrano[2,3-e]isoindole] | 0.003 (≈ 0.00572 µM) |  | 5 to 10 (≈ 9.53 to 19.1 µM) |
